Measurements taken from PubChem BioAssay (NCI).
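Compound exposure: 48 hours, 5 concentrations, 96-well plates. GI50 marks 50% less growth. The concentration for full growth arrest is given as TGI.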 Where a SMILES comes first, the peptide text is derived from it. [ ]: non-standard residue; d: D form. The star is where a group is joined. AllylGly = C=CC[CH](N)C(=O)O; Boc = CC(C)(C)OC(=O)*; OtBu = CC(C)(C)O*

Assays:
Test in all cases: inhibition of tumour cell growth, NCI panel, 48 h; in the data active means GI50 below about 0.43 µM; inactive means the rest
NCI-H23 lung = tested on: NCI-H23 lung
T-47D breast = tested on: T-47D breast
ACHN renal = tested on: ACHN renal
RXF 393 renal = tested on: RXF 393 renal
IGROV1 ovarian = tested on: IGROV1 ovarian
COLO 205 colon = tested on: COLO 205 colon
SK-MEL-5 melanoma = tested on: SK-MEL-5 melanoma
NCI-H460 lung = tested on: NCI-H460 lung
A498 renal = tested on: A498 renal
MCF7 breast = tested on: MCF7 breast

Cc1ccc(S(=O)(=O)NN=C2CCCCCCCCCCC2)cc1
> 100 µM: TGI (NCI-H23 lung) | TGI (T-47D breast) | TGI (ACHN renal) | TGI (RXF 393 renal) | TGI (IGROV1 ovarian) | TGI (COLO 205 colon) | TGI (SK-MEL-5 melanoma) | TGI (NCI-H460 lung) | TGI (A498 renal) | TGI (MCF7 breast)

C=CCC(NC(=O)C(CC(=O)OC(C)(C)C)NC(=O)OC(C)(C)C)C(=O)OC (stereo not drawn) (Boc-Asp(OtBu)-[AllylGly]-OMe; configuration not given here)
51.8 µM: TGI (COLO 205 colon)
> 57.3 µM: TGI (SK-MEL-5 melanoma)
> 100 µM: TGI (NCI-H23 lung) | TGI (T-47D breast) | TGI (ACHN renal) | TGI (RXF 393 renal) | TGI (IGROV1 ovarian) | TGI (NCI-H460 lung) | TGI (A498 renal) | TGI (MCF7 breast)

CC(OC(=O)NCn1cc(-c2ccccc2)nn1)c1ccccc1 (stereo not drawn)
32.4 µM: TGI (SK-MEL-5 melanoma)
> 100 µM: TGI (ACHN renal) | TGI (IGROV1 ovarian) | TGI (COLO 205 colon) | TGI (NCI-H460 lung) | TGI (MCF7 breast)
76.8 µM: TGI (NCI-H23 lung)

O=C1Nc2cccc(Cl)c2/C1=C\c1c(Cl)nc2sccn12
29.6 µM: TGI (RXF 393 renal)
> 100 µM: TGI (T-47D breast) | TGI (IGROV1 ovarian) | TGI (COLO 205 colon) | TGI (SK-MEL-5 melanoma) | TGI (NCI-H460 lung) | TGI (A498 renal) | TGI (MCF7 breast)
66.3 µM: TGI (NCI-H23 lung)
29.4 µM: TGI (ACHN renal)

CC1(c2nc3cc(Cl)c(Cl)cc3[nH]2)CCC(CO)C(C)(C)O1 (stereo not drawn)
> 100 µM: TGI (T-47D breast) | TGI (ACHN renal) | TGI (RXF 393 renal) | TGI (MCF7 breast)
76.4 µM: TGI (NCI-H23 lung)
77.6 µM: TGI (IGROV1 ovarian)
73.8 µM: TGI (COLO 205 colon)
27.1 µM: TGI (SK-MEL-5 melanoma)

CN1CN(c2ccccc2)C2(CCN(CCCSc3ccccc3NC(=O)/C=C/c3ccccc3)CC2)C1=O
6.61 µM: TGI (IGROV1 ovarian)
25.1 µM: TGI (NCI-H23 lung)
31.9 µM: TGI (RXF 393 renal)
6.98 µM: TGI (A498 renal)
4.53 µM: TGI (COLO 205 colon)
> 49.8 µM: TGI (MCF7 breast)
> 59.7 µM: TGI (T-47D breast)
14.8 µM: TGI (NCI-H460 lung)
9.18 µM: TGI (SK-MEL-5 melanoma)
9.81 µM: TGI (ACHN renal)

CC(C)(C)NN=C1C(C)(C)C(=NNC(C)(C)C)C1(C)C
> 100 µM: TGI (NCI-H23 lung) | TGI (ACHN renal) | TGI (RXF 393 renal) | TGI (IGROV1 ovarian) | TGI (COLO 205 colon) | TGI (SK-MEL-5 melanoma) | TGI (NCI-H460 lung)

O=c1[nH]c(=O)n(C2CC(O)C(CO)O2)cc1OCCCc1ccccc1 (stereo not drawn)
> 100 µM: TGI (NCI-H23 lung) | TGI (T-47D breast) | TGI (ACHN renal) | TGI (RXF 393 renal) | TGI (IGROV1 ovarian) | TGI (COLO 205 colon) | TGI (SK-MEL-5 melanoma) | TGI (NCI-H460 lung) | TGI (MCF7 breast)

O=c1[nH]c(Nc2cccc(C(F)(F)F)c2)nc2nc[nH]c12
> 100 µM: TGI (T-47D breast) | TGI (ACHN renal) | TGI (RXF 393 renal) | TGI (IGROV1 ovarian) | TGI (COLO 205 colon) | TGI (SK-MEL-5 melanoma) | TGI (MCF7 breast)

Cc1cccc2c1Oc1ccccc1C2NC(=O)c1ccc([N+](=O)[O-])cc1 (stereo not drawn)
89.2 µM: TGI (RXF 393 renal)
> 100 µM: TGI (NCI-H23 lung) | TGI (T-47D breast) | TGI (ACHN renal) | TGI (IGROV1 ovarian) | TGI (SK-MEL-5 melanoma) | TGI (NCI-H460 lung) | TGI (A498 renal)

O=P(Oc1ccccc1)(Oc1ccccc1)Oc1c[nH]c2ccccc12
52.9 µM: TGI (T-47D breast)
25.3 µM: TGI (MCF7 breast)
24.8 µM: TGI (SK-MEL-5 melanoma)
26.7 µM: TGI (NCI-H460 lung)
20.7 µM: TGI (IGROV1 ovarian)
13.9 µM: TGI (COLO 205 colon)
29.1 µM: TGI (A498 renal)
25.8 µM: TGI (NCI-H23 lung)
29.2 µM: TGI (RXF 393 renal)

CC1=C2c3c(C)ccc4ccc(C)c(c34)C2(O)C(C)C1=O (stereo not drawn)
> 100 µM: TGI (T-47D breast) | TGI (ACHN renal) | TGI (IGROV1 ovarian) | TGI (SK-MEL-5 melanoma) | TGI (NCI-H460 lung) | TGI (A498 renal) | TGI (MCF7 breast)
72.2 µM: TGI (COLO 205 colon)

COC1=CC(=O)[C@H]2[C@H](C)C(c3ccccc3)[C@@]2(C)C1=O (stereo partly drawn)
> 100 µM: TGI (NCI-H23 lung) | TGI (ACHN renal) | TGI (RXF 393 renal) | TGI (IGROV1 ovarian) | TGI (COLO 205 colon) | TGI (SK-MEL-5 melanoma) | TGI (NCI-H460 lung) | TGI (A498 renal)

COc1ccc2nc3ccc(OC)cc3c(S(=O)(=O)Cc3ccc([N+](=O)[O-])cc3)c2c1
> 100 µM: TGI (NCI-H23 lung) | TGI (T-47D breast) | TGI (ACHN renal) | TGI (RXF 393 renal) | TGI (IGROV1 ovarian) | TGI (COLO 205 colon) | TGI (NCI-H460 lung) | TGI (A498 renal) | TGI (MCF7 breast)

COc1cccc(NC(=S)Nn2c(C)nc3ccccc3c2=O)c1
> 100 µM: TGI (NCI-H23 lung) | TGI (ACHN renal) | TGI (RXF 393 renal) | TGI (IGROV1 ovarian) | TGI (COLO 205 colon) | TGI (SK-MEL-5 melanoma) | TGI (NCI-H460 lung) | TGI (A498 renal)

COC(=O)C(O)P(=O)(OC)OC (stereo not drawn)
> 100 µM: TGI (NCI-H23 lung) | TGI (T-47D breast) | TGI (ACHN renal) | TGI (RXF 393 renal) | TGI (IGROV1 ovarian) | TGI (COLO 205 colon) | TGI (SK-MEL-5 melanoma) | TGI (A498 renal) | TGI (MCF7 breast)

OC12COc3ccccc3C1Oc1ccccc1C2 (stereo not drawn)
> 100 µM: TGI (NCI-H23 lung) | TGI (T-47D breast) | TGI (ACHN renal) | TGI (IGROV1 ovarian) | TGI (COLO 205 colon) | TGI (SK-MEL-5 melanoma) | TGI (A498 renal) | TGI (MCF7 breast)

CCCn1c(SCC)c2ccccc2c1-c1nc(F)nc(F)n1
> 100 µM: TGI (NCI-H23 lung) | TGI (ACHN renal) | TGI (RXF 393 renal) | TGI (COLO 205 colon) | TGI (NCI-H460 lung) | TGI (A498 renal)

Nc1c(-c2nc3ccccc3s2)c2ccc([N+](=O)[O-])cc2c(=O)n1-c1cccc(C(=O)O)c1
> 100 µM: TGI (ACHN renal) | TGI (COLO 205 colon) | TGI (SK-MEL-5 melanoma) | TGI (NCI-H460 lung)
64.1 µM: TGI (T-47D breast)
92.8 µM: TGI (NCI-H23 lung)

CC1(C)CC[C@]2(C)CC=C3[C@]4(C)CC[C@H]5C(C)(C)C(=O)CC[C@]5(C)[C@H]4CC[C@@]3(C)[C@H]2C1
> 100 µM: TGI (NCI-H23 lung) | TGI (T-47D breast) | TGI (ACHN renal) | TGI (RXF 393 renal) | TGI (IGROV1 ovarian) | TGI (COLO 205 colon) | TGI (SK-MEL-5 melanoma) | TGI (A498 renal) | TGI (MCF7 breast)

CCCCCCOc1ccc(C(=O)NOCc2ccccc2)cc1
> 100 µM: TGI (NCI-H23 lung) | TGI (ACHN renal) | TGI (RXF 393 renal) | TGI (IGROV1 ovarian) | TGI (COLO 205 colon) | TGI (SK-MEL-5 melanoma) | TGI (NCI-H460 lung) | TGI (A498 renal) | TGI (MCF7 breast)

COCC1CCCN1c1ccc(/C=C(/C#N)C(N)=S)cc1 (stereo not drawn)
inactive: GI50 (NCI-H23 lung) > 100 µM | GI50 (T-47D breast) 30.6 µM | GI50 (ACHN renal) > 100 µM | GI50 (RXF 393 renal) > 100 µM | GI50 (COLO 205 colon) > 100 µM | GI50 (SK-MEL-5 melanoma) 89.1 µM | GI50 (NCI-H460 lung) > 100 µM | GI50 (A498 renal) > 100 µM | GI50 (MCF7 breast) 69.4 µM
> 100 µM: TGI (NCI-H23 lung) | TGI (T-47D breast) | TGI (ACHN renal) | TGI (RXF 393 renal) | TGI (COLO 205 colon) | TGI (SK-MEL-5 melanoma) | TGI (NCI-H460 lung) | TGI (A498 renal) | TGI (MCF7 breast)
